In patent US7638554B2, “Flavanoids as chemotherapeutic, chemopreventive, and antiangiogenic agents” (SRI International, priority 2002, dated 2009):

Legend:
[1] = tested on: MDA-MB-231 (ER−) breast cancer cell line; test: Growth inhibition assay, MTT, MDA-MB-231 breast cancer cells; format: cell-based, human; details: Homo sapiens, MDA-MB-231, 192 h, eight days, average of at least two experiments
Experimental: Compounds of the invention were tested for their ability to inhibit growth in two breast cancer cell lines, MCF-7 (ER+) and MDA-MB-231 (ER−).
The growth inhibition assays were conducted using routine methods. Briefly, the cells were seeded in 24-well plates at a density of 2000 cells per well in 200 μL of […] growth medium. To each well was added 10 μL of DMSO containing the dissolved test compound; final DMSO concentration in each well was not more than 0.5%. Each test compound was assayed at concentrations of 0.4, 2, 10, and 50 μM. The plates were incubated for eight days, with the media and test solutions replaced every third day. On Day 8, the viable cells were measured by the MTT assay, as described in Mosmann et al. (1983), “Rapid Colorimetric Assay for Cellular Growth and Survival: Application to Proliferation and Cytotoxicity,” J. Immunol. Method. 65:55-63. The optical density at 575 nm of each test well was measured and compared to that for control wells, and the data used to calculate the percentage of growth inhibition at different concentrations. The IC50 value (the concentration of growth inhibitor that results in 50% growth inhibition of the cells in culture relative to control cells not exposed to any growth inhibitor) was determined by plotting dose-response curves.
The calculated IC50 values are set forth in Table 1, with the results representing the average of at least two experiments conducted for each compound at each of the four concentrations.

HUVEC cells = test: Apoptosis in HUVEC cells, TUNEL assay; format: cell-based, human
Experimental: The antiproliferative mechanism was investigated by assaying for apoptosis using the method of Gavrieli et al. using a Promega (Madison, Wis.) apoptosis detection kit (Gavrieli et al. (1992) J Cell. Biol. 119:493-501). Briefly, HUVEC cells were treated with four log concentrations of SR 13179 (1 nM, 10 nM, 100 nM, and 1 μM) and fixed for terminal deoxyribonucleotide transferase-mediated dUTP nick end labeling (TUNEL) assay at 3 h and 6 h. The apoptotic cells were labeled with fluorescent dUTP at DNA strand breaks, and were counterstained with Hoechst 33258 to visualize nuclear morphology. Even at concentrations as low as 10 nM at 3 h, apoptosis was clearly evident as pyknotic nuclei. […] At six hours, there appeared to be massive apoptosis at higher concentrations of SR 13179, such that the cells were detached and lost during the washing steps. It thus appears that the antiproliferative effect of SR 13179 on vascular endothelial cells is mediated by apoptosis.

With `COc1cc(C2CC(O)c3ccc4ccccc4c3O2)cc(OC)c1OC` (stereo not shown) [SR 13179, 2-(3,4,5-trimethoxyphenyl)-3,4-dihydro-2H-benzo[h]chromen-4-ol] as the molecule, how does the IC50 [1] read?
Its IC50 is 3.01 µM.

And the Percent apoptosis (HUVEC cells; 1 nM, 3 h)?
Its Percent apoptosis is 10.3%.

And the Percent apoptosis (HUVEC cells; 1 nM, 6 h)?
Its Percent apoptosis is 8.5%.

And the Percent apoptosis (HUVEC cells; 10 nM, 3 h)?
Its Percent apoptosis is 10.3%.

And the Percent apoptosis (HUVEC cells; 10 nM, 6 h)?
The Percent apoptosis was “cells detached”.

And the Percent apoptosis (HUVEC cells; 100 nM, 3 h)?
Its Percent apoptosis is 11.9%.

What about the Percent apoptosis (HUVEC cells; 100 nM, 6 h) of the same molecule?
Its Percent apoptosis is “cells detached”.

What about the Percent apoptosis (HUVEC cells; 1 μM, 3 h) of the same molecule?
Its Percent apoptosis is 16.7%.

What about the Percent apoptosis (HUVEC cells; 1 μM, 6 h) of the same molecule?
The Percent apoptosis was “cells detached”.

What about the “increase in the percentage of detected apoptotic cells” value (HUVEC cells; three hours after exposure, versus control) of the same molecule?
The value was “two to three fold increase”.
